{"source": "a melting point compilation (Tetko et al.; mined from patent text by program, amines drawn as free bases though some values may be those of a salt)"}
{"units": {"melting point": "°C"}}
{"compound": "CC(=O)N1CCc2c(sc3nc4ccccc4n23)C1", "melting point": "181 to 186"}
{"compound": "Cn1c(=O)c2c(nc(C=Cc3cccc(N(C(=O)OC(C)(C)C)C(=O)OC(C)(C)C)c3)n2C)n(C)c1=O", "melting point": "175 to 177"}
{"compound": "Cc1ccc2c(c1)C(C(F)(F)F)(C(F)(F)F)c1cc(C)ccc1O2", "melting point": "136 to 137"}
{"compound": "COc1c(C=O)c(C)cc2c1C(C)(C)CCC2(C)C", "melting point": 78}
{"compound": "Cc1c(CNC(C)C)ncn1C(c1ccccc1)(c1ccccc1)c1ccccc1", "melting point": "150 to 154"}
{"compound": "CS(=O)(=O)OCCCCC1C(=O)Nc2ccc(F)cc21", "note": "(stereo not given)", "melting point": "106 to 108"}
{"compound": "c1cc2c3c(cccc3c1)NN=N2", "melting point": "80 to 81"}
{"compound": "CN(C)c1ncccc1NC(=NC#N)NC1(c2ccccc2)CCC1", "melting point": "204 to 205"}
{"compound": "O=C(N1CCOCC1)C12CC(CN1)C2", "melting point": "97.5 to 98"}
{"compound": "Cc1ccc(Cl)cc1N1CCN(c2nc(=O)c3cc(C(F)(F)F)cc([N+](=O)[O-])c3s2)CC1", "melting point": "158 to 161"}
{"compound": "Cc1cccc(C)c1NNC(=O)OCCCl", "melting point": "74 to 75"}
{"compound": "O=CC1CCSc2[nH]c3ccccc3c21", "note": "(stereo not given)", "melting point": "60 to 65"}
{"compound": "O=C(O)c1cc(-c2ccc(-c3ccc(C(F)(F)F)cc3)o2)ccc1O", "melting point": "272 to 273"}
{"compound": "O=C1N=c2cccc(OCCN3CCC(Cc4ccccc4)CC3)c2=NC1=O", "melting point": "244 to 245"}
{"compound": "CC(C)(CO)NC(=O)c1nn(-c2c(F)cc(F)cc2F)c2c1C1CCC2C1", "note": "(stereo not given)", "melting point": "122 to 125"}
{"compound": "COc1c(N2CC(C)C(NC3CC3)C(C)C2)c(F)c(N)c2c(=O)c(C(=O)O)cn(C3CC3)c12", "note": "(stereo not given)", "melting point": 248}
{"compound": "CC(C)(C)OC(=O)N1CCCC(C(=O)OCC(=O)C(C)(C)C)(C(=O)OCc2ccccc2)C1", "note": "(stereo not given)", "melting point": 60}
{"compound": "O=C(NCCc1cccc2ccc(OC3C=CCCC3)cc12)C1CCC1", "note": "(stereo not given)", "melting point": "104 to 106"}
{"compound": "COc1cc2c(OC)c3c(c(-c4ccc5c(c4)OCO5)c2cc1OC)C(=O)OC3", "melting point": "256 to 258"}
{"compound": "Oc1cccc2c1SCCC2", "melting point": "86 to 88"}
{"compound": "CC(=O)n1nc(SCc2ccccc2)nc1N", "melting point": 146}
{"compound": "N#Cc1cnc2sc(S(=O)(=O)Cc3ccccc3)nn2c1=O", "melting point": "219 to 221"}
{"compound": "Cc1nc(NCc2ccc(C)o2)c2nc(-c3ccccc3)cc-2[nH]1", "melting point": "125 to 128"}
{"compound": "O=C1Nc2ccc(Cl)cc2C(OCC2CC2)(C(F)(F)F)CN1C1CCC1", "note": "(stereo not given)", "melting point": 156}
{"compound": "CN1CCC(Oc2c(F)c(F)c(F)c(F)c2F)(c2ccc(C(F)(F)F)cc2)CC1", "melting point": "45 to 48"}
{"compound": "O=C(Cc1cc(Cl)cc(Cl)c1)NC1N=C(C2CC2)c2ccccc2N(CC(F)(F)F)C1=O", "note": "(single isomer, unassigned; (+))", "melting point": "152 to 153"}
{"compound": "N#Cc1c(N2CCN(C(=O)c3cccs3)CC2)c2cc(Cl)cnc2n(CC(=O)c2ccccc2)c1=O", "melting point": 316}
{"compound": "CCOC(=O)c1cn2c(cc(OC(C)C)c3ccc(Cl)cc32)n1", "melting point": "187 to 189"}
{"compound": "COc1cccc2c(=O)c(-c3cccc(C(F)(F)F)c3Cl)nn(Cc3ccc(F)cc3F)c12", "melting point": "141 to 142"}
{"compound": "CCn1c2ccccc2c2cc(OC)c(C#N)cc21", "melting point": "145 to 155"}
{"compound": "COc1cc(CNc2n[nH]c3ncnc(Nc4cccc(Cl)c4)c23)cc(OC)c1", "melting point": "208 to 209"}
{"compound": "Cc1cccc(C)c1NCCCNCC(O)COc1ccc(O)cc1", "note": "(stereo not given)", "melting point": "97 to 98"}
{"compound": "CCCNC(=NC(=Nc1ccccc1)N1CCOCC1)C(C)C", "melting point": "122 to 124"}
{"compound": "CCOP(=O)(CCC(OC)(C(=O)c1ccccc1)c1ccccc1)OCC", "note": "(stereo not given)", "melting point": "60 to 62"}
{"compound": "CC(C)(C)C(O)c1ccc(CO)cc1", "note": "(stereo not given)", "melting point": "91 to 95"}
{"compound": "CCOC(=O)COc1ccc2cc(-c3cc4ccccc4s3)ccc2c1Cl", "melting point": "187 to 188"}
{"compound": "CCNc1nc(-c2cccc(C3=Nc4cc(N(C)C)c(Cl)cc4NC(=O)C3)c2)cs1", "melting point": "122 to 123"}
{"compound": "Cc1nc(-n2cnn(CC3CC3)c2=O)sc1C(N)=O", "melting point": "180 to 181"}
{"compound": "NC(=O)c1sc2nccc(N3CCCC(O)C3)c2c1N", "note": "(stereo not given)", "melting point": "208 to 211"}
{"compound": "COC(=O)c1cn(C)c2cc(OC)c(C(F)(F)F)cc12", "melting point": "166 to 170"}
